Data: ChEMBL document CHEMBL5096233, “Phenotypic Discovery of Triazolo[1,5-c]quinazolines as a First-In-Class Bone Morphogenetic Protein Amplifier Chemotype” (J Med Chem, 2022)
pIC50: −log10 of the molar value. Activity calls are given as the source filed them. The rule behind the calls is not given here.

Target: T1, Phosphatidylinositol 4,5-bisphosphate 3-kinase catalytic subunit gamma isoform (Homo sapiens, UniProt P48736)
Assay: Inhibition of PI3Kgamma (unknown origin) at 10 uM relative to control
Settings: not given
Target sequence in this assay (P48736 whole entry, looked up, canonical isoform): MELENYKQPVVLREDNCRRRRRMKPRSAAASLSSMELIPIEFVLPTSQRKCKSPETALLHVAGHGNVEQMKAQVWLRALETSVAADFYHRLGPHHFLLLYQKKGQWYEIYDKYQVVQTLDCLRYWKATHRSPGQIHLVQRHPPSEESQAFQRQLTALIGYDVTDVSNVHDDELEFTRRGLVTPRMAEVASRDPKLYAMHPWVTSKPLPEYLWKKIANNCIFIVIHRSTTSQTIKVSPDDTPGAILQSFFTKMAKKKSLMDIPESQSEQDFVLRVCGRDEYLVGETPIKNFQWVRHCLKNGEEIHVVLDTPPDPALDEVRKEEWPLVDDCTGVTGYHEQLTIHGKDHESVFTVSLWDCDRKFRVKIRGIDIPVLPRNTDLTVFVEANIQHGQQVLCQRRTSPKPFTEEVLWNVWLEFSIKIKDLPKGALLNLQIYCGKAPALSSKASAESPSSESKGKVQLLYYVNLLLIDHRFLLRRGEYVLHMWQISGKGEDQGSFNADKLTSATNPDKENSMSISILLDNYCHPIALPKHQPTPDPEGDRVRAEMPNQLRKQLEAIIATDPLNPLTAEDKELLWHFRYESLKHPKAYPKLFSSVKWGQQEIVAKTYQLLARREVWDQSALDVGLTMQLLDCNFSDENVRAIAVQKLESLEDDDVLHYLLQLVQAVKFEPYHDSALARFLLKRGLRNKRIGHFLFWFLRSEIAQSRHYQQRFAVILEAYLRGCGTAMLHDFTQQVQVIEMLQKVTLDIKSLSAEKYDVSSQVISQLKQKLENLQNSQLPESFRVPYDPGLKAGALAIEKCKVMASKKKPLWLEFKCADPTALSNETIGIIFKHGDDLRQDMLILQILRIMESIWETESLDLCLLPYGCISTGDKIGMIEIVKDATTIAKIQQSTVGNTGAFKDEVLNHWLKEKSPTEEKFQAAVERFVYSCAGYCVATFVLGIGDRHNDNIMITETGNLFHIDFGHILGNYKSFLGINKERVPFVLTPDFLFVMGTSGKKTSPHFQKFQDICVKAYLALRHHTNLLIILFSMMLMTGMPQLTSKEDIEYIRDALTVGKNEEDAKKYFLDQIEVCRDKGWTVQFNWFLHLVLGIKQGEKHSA

Row | SMILES | inhibition [%]
1 | Nc1nc2ccc(O)cc2c2nc(-c3ccco3)nn12 | 79
2 | Nc1nc2ccc(Br)cc2c2nc(-c3ccco3)nn12 | 93
3 | Nc1nc2ccc(Cl)cc2c2nc(-c3ncco3)nn12 | 91
4 | Nc1nc2ccc(Cl)cc2c2nc(-c3ccco3)nn12 [CGS-15943] | 96

Tested on: HEK293T
Assay: Activation of BMP signaling in HEK293T cells expressing BRE-Vent2 luciferase reporter gene assessed as BRE activation by measuring increase in luciferase activity measured after 22 hrs in the presence of BMP-4 by dual-luciferase assay
Type: cell-based
Settings: Homo sapiens, filed as activator

Row | SMILES | Activity
5 | Nc1nc2ccc(O)cc2c2nc(-c3ccco3)nn12 | Active
6 | Nc1nc2ccc(F)cc2c2nc(-c3ccco3)nn12 | Active
7 | Nc1nc2ccccc2c2nc(-c3ccco3)nn12 | Active
8 | Nc1nc2ccc(Br)cc2c2nc(-c3ccco3)nn12 | Active
9 | Nc1ccc2nc(N)n3nc(-c4ccco4)nc3c2c1 | Active
10 | Nc1nc2ccc(Cl)cc2c2nc(-c3ncco3)nn12 | Active
11 | Nc1nc2ccc(Cl)cc2c2nc(-c3ccco3)nn12 [CGS-15943] | Active

Target: Casein kinase I isoform epsilon (Homo sapiens, UniProt P49674)
Sequence (P49674 whole entry, canonical isoform): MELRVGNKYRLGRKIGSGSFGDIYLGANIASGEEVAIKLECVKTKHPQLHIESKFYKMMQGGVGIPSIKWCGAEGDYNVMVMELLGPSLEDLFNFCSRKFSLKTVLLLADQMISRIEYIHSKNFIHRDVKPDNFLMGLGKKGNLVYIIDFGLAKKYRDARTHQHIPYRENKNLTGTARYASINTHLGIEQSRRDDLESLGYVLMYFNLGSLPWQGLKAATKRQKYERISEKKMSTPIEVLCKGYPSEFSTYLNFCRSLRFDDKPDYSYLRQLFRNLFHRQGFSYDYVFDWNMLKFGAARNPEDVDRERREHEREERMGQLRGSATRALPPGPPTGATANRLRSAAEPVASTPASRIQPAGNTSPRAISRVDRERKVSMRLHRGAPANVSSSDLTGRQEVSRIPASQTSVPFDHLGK
Assay: Inhibition of CK1epsilon (unknown origin)
Settings: not given

Row | SMILES | pIC50
12 | Nc1nc2ccc(O)cc2c2nc(-c3ccco3)nn12 | < 5.00
13 | Nc1nc2ccc(Br)cc2c2nc(-c3ccco3)nn12 | 6.42
14 | Nc1nc2ccc(Cl)cc2c2nc(-c3ncco3)nn12 | 5.68
15 | Nc1nc2ccc(Cl)cc2c2nc(-c3ccco3)nn12 [CGS-15943] | 6.31

Target: T2, Phosphatidylinositol 4,5-bisphosphate 3-kinase catalytic subunit beta isoform (Homo sapiens, UniProt P42338)
Assay: Inhibition of PI3Kbeta (unknown origin) at 10 uM relative to control
Settings: not given

Row | SMILES | inhibition [%]
16 | Nc1nc2ccc(O)cc2c2nc(-c3ccco3)nn12 | 0
17 | Nc1nc2ccc(Br)cc2c2nc(-c3ccco3)nn12 | 27
18 | Nc1nc2ccc(Cl)cc2c2nc(-c3ncco3)nn12 | 29
19 | Nc1nc2ccc(Cl)cc2c2nc(-c3ccco3)nn12 [CGS-15943] | 39

Target: T3, Phosphatidylinositol 4,5-bisphosphate 3-kinase catalytic subunit delta isoform (Homo sapiens) (UniProt O00329)
T3 sequence (whole entry): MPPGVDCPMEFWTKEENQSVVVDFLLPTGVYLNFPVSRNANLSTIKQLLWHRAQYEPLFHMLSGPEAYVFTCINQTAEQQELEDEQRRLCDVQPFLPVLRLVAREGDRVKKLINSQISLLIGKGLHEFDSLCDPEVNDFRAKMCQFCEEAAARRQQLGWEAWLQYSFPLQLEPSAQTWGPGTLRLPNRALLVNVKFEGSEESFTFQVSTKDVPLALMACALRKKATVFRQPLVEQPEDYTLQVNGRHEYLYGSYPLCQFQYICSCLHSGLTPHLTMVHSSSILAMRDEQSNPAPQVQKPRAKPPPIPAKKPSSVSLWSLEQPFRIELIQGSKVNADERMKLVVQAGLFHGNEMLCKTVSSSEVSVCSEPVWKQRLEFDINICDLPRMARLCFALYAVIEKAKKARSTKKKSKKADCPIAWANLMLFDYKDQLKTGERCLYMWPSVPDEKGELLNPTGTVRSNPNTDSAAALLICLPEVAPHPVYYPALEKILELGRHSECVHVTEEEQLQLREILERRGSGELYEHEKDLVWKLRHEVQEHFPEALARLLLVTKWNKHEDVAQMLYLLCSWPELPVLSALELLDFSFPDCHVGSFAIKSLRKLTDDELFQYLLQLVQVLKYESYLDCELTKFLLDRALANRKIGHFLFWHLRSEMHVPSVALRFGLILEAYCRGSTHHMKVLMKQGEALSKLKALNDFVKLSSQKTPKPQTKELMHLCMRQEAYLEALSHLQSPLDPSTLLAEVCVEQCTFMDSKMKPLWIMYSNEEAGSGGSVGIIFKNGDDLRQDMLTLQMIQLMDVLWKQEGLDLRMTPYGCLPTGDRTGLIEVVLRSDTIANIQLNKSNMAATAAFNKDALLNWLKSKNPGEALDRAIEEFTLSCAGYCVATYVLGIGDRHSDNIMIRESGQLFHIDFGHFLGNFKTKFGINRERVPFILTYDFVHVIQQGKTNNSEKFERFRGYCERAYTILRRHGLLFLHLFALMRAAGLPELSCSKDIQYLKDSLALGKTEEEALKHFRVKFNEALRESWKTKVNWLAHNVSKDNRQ
Assay: Inhibition of PI3Kdelta (unknown origin) at 10 uM relative to control
Settings: not given

Row | SMILES | inhibition [%]
20 | Nc1nc2ccc(O)cc2c2nc(-c3ccco3)nn12 | 11
21 | Nc1nc2ccc(Br)cc2c2nc(-c3ccco3)nn12 | 75
22 | Nc1nc2ccc(Cl)cc2c2nc(-c3ncco3)nn12 | 79
23 | Nc1nc2ccc(Cl)cc2c2nc(-c3ccco3)nn12 [CGS-15943] | 34

Target: T4, Phosphatidylinositol 4,5-bisphosphate 3-kinase catalytic subunit alpha isoform (Homo sapiens, UniProt P42336)
T4 sequence (P42336 whole entry, canonical isoform): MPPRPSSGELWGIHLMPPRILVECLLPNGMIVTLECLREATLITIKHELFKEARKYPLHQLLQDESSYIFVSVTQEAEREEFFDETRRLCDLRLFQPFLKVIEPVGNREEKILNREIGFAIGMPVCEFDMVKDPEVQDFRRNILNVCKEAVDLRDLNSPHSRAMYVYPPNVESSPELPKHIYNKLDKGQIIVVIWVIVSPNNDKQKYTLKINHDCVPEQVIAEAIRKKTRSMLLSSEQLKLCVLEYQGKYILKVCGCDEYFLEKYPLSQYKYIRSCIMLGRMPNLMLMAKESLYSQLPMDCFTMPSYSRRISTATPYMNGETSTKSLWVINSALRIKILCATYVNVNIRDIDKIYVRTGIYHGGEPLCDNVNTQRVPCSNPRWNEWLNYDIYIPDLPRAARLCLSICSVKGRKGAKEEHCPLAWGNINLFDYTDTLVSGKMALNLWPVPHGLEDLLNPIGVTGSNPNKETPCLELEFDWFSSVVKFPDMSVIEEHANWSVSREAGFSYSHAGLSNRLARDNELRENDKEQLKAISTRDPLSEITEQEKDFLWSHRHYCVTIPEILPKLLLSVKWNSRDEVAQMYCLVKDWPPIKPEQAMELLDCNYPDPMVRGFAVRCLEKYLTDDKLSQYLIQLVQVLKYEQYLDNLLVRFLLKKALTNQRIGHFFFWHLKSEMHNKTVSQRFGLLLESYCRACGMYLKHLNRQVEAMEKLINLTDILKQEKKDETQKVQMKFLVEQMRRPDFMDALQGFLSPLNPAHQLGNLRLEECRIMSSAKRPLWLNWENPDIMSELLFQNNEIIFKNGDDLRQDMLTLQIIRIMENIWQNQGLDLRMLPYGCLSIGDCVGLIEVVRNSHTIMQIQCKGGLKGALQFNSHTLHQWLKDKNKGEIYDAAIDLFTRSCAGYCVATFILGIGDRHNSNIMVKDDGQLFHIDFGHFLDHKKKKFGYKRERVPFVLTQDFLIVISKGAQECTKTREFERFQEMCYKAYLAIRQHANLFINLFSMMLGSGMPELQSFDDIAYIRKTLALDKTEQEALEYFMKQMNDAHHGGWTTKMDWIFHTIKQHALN
Assay: Inhibition of PI3Kalpha (unknown origin)
Settings: not given

Row | SMILES | pIC50
24 | Nc1nc2ccc(Cl)cc2c2nc(-c3ccco3)nn12 [CGS-15943] | 5.89

Tested on: C2C12
Assay: Induction of osteogenic differentiation in mouse C2C12 cells assessed as ALP activity at 5 uM preincubated with compound in the presence of BMP-4 for 72 hrs followed by substrate addition and measured after 1 hrs by luminescence based assay relative to control
Type: functional
Settings: time 73 hrs

Row | SMILES | Activity [%]
25 | Nc1nc2ccc(O)cc2c2nc(-c3ccco3)nn12 | 184
26 | Nc1nc2ccc(Br)cc2c2nc(-c3ccco3)nn12 | 554
27 | Nc1nc2ccc(Cl)cc2c2nc(-c3ncco3)nn12 | 166
28 | Nc1nc2ccc(Cl)cc2c2nc(-c3ccco3)nn12 [CGS-15943] | 290

Tested on: not listed separately
Assay: Inhibition of DMH-1 induced cardiogenesis in mouse embryonic stem cells transfected with Myh6-GFP pretreated with compound followed by DMH-1 stimulation for 24 hrs in the presence of BMP-4 with replacement of media on day 7 and 9 and measured after 11 days by DAPI-staining based assay
Settings: embryonic stem cell

Row | SMILES | pIC50
29 | Nc1nc2ccc(Cl)cc2c2nc(-c3ccco3)nn12 [CGS-15943] | 6.30

Tested on: C2C12
Assay: Induction of osteogenic differentiation in mouse C2C12 cells assessed as ALP activity preincubated with compound in the presence of BMP-4 for 72 hrs followed by substrate addition and measured after 1 hrs in the presence of BYL719 by luminescence based assay
Type: functional, cell-based
Settings: time 73.0 hrs, DDE = dose-dependent effect

Row | SMILES | Activity
30 | Fc1cccc(-n2cnc3c(NCc4nc5c(F)c(F)ccc5[nH]4)nc(N4CCOCC4)nc32)c1 | Dde

Tested on: C2C12
Assay: Induction of osteogenic differentiation in mouse C2C12 cells assessed as ALP activity preincubated with compound in the presence of BMP-4 for 72 hrs followed by substrate addition and measured after 1 hrs by luminescence based assay
Type: functional, cell-based
Settings: time 73.0 hrs

Row | SMILES | Activity
31 | Cc1nc(NC(=O)N2CCC[C@H]2C(N)=O)sc1-c1ccnc(C(C)(C)C(F)(F)F)c1 | Active
32 | Nc1nc2ccc(F)cc2c2nc(-c3ccco3)nn12 | Active
33 | CC(=O)/N=c1/[nH]c(C)c(-c2ccc(Cl)c(S(=O)(=O)NCCO)c2)s1 | Active
34 | Nc1nc2ccccc2c2nc(-c3ccco3)nn12 | Active
35 | Nc1nc2ccc(Br)cc2c2nc(-c3ccco3)nn12 | Active
36 | Nc1nc2ccc(Cl)cc2c2nc(-c3ncco3)nn12 | Active
37 | Nc1nc2ccc(Cl)cc2c2nc(-c3ccco3)nn12 [CGS-15943] | Active

Target: T4, Phosphatidylinositol 4,5-bisphosphate 3-kinase catalytic subunit alpha isoform
Assay: Inhibition of PI3Kalpha (unknown origin) at 10 uM relative to control
Settings: not given

Row | SMILES | inhibition [%]
38 | Nc1nc2ccc(O)cc2c2nc(-c3ccco3)nn12 | 72
39 | Nc1nc2ccc(Br)cc2c2nc(-c3ccco3)nn12 | 80
40 | Nc1nc2ccc(Cl)cc2c2nc(-c3ncco3)nn12 | 82
41 | Nc1nc2ccc(Cl)cc2c2nc(-c3ccco3)nn12 [CGS-15943] | 86

Target: DNA-dependent protein kinase catalytic subunit (Homo sapiens, UniProt P78527)
Assay: Inhibition of DNA-PK (unknown origin)
Settings: not given

Row | SMILES | pIC50
42 | Nc1nc2ccc(Cl)cc2c2nc(-c3ccco3)nn12 [CGS-15943] | 6.85

Target: Casein kinase I isoform delta (Homo sapiens, UniProt P48730)
Sequence (P48730 whole entry, canonical isoform): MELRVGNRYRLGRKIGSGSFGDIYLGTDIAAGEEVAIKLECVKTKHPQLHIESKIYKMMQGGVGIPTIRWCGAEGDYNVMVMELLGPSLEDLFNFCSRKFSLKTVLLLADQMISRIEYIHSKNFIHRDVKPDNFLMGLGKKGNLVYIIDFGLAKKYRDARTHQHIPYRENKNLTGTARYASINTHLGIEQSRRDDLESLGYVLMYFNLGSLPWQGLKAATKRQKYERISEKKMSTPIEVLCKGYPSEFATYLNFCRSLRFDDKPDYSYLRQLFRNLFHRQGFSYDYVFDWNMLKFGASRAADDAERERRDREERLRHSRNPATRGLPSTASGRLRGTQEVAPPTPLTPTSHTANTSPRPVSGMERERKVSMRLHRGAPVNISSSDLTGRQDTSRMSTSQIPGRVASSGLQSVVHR
Assay: Inhibition of CK1delta (unknown origin)
Settings: not given

Row | SMILES | pIC50
43 | Nc1nc2ccc(O)cc2c2nc(-c3ccco3)nn12 | 5.44
44 | Nc1nc2ccc(Br)cc2c2nc(-c3ccco3)nn12 | 6.92
45 | Nc1nc2ccc(Cl)cc2c2nc(-c3ncco3)nn12 | 6.37
46 | Nc1nc2ccc(Cl)cc2c2nc(-c3ccco3)nn12 [CGS-15943] | 6.62

Tested on: C2C12
Assay: Induction of osteogenic differentiation in mouse C2C12 cells assessed as ALP activity preincubated with compound in the presence of BMP-4 for 72 hrs followed by substrate addition and measured after 1 hrs in the presence of PIK93 by luminescence based assay
Type: functional, cell-based
Settings: time 73.0 hrs, DDE = dose-dependent effect

Row | SMILES | Activity
47 | Fc1cccc(-n2cnc3c(NCc4nc5c(F)c(F)ccc5[nH]4)nc(N4CCOCC4)nc32)c1 | Dde

Target: T1, Phosphatidylinositol 4,5-bisphosphate 3-kinase catalytic subunit gamma isoform
Assay: Inhibition of PI3Kgamma (unknown origin)
Settings: not given
Target sequence in this assay (P48736 whole entry, canonical isoform): as the sequence (P48736 whole entry, looked up, canonical isoform) above

Row | SMILES | pIC50
48 | Nc1nc2ccc(Cl)cc2c2nc(-c3ccco3)nn12 [CGS-15943] | 6.96

Target: T2, Phosphatidylinositol 4,5-bisphosphate 3-kinase catalytic subunit beta isoform
Assay: Inhibition of PI3Kbeta (unknown origin)
Settings: not given

Row | SMILES | pIC50
49 | Nc1nc2ccc(Cl)cc2c2nc(-c3ccco3)nn12 [CGS-15943] | 5.07

Target: Phosphatidylinositol 3-kinase catalytic subunit type 3 (Homo sapiens) (UniProt Q8NEB9)
Sequence (Q8NEB9 whole entry): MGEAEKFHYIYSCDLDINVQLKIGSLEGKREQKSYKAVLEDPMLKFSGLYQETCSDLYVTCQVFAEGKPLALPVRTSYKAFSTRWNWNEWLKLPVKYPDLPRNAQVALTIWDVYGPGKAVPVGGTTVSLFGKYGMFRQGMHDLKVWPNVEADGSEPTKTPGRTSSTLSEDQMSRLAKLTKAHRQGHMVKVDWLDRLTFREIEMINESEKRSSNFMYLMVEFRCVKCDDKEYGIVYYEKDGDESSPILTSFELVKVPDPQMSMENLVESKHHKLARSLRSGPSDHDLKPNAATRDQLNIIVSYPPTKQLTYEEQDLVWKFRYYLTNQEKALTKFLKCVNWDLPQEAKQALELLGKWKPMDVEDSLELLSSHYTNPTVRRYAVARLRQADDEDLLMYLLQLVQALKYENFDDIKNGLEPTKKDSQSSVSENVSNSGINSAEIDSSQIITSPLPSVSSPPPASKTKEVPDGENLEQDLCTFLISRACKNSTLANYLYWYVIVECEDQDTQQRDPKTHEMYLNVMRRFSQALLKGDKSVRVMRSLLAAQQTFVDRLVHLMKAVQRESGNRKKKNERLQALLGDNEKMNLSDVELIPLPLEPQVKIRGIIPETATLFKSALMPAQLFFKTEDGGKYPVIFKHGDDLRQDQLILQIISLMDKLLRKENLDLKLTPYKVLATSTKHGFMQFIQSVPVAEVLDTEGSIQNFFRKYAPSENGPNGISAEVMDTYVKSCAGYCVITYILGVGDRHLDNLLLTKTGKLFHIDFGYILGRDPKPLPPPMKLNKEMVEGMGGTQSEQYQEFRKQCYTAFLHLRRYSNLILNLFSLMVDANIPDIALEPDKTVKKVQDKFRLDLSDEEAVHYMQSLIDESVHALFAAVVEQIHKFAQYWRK
Assay: Inhibition of VPS34 (unknown origin) at 10 uM relative to control
Settings: not given

Row | SMILES | inhibition [%]
50 | Nc1nc2ccc(O)cc2c2nc(-c3ccco3)nn12 | 29
51 | Nc1nc2ccc(Br)cc2c2nc(-c3ccco3)nn12 | 6
52 | Nc1nc2ccc(Cl)cc2c2nc(-c3ncco3)nn12 | 10
53 | Nc1nc2ccc(Cl)cc2c2nc(-c3ccco3)nn12 [CGS-15943] | 5

Target: T5, Phosphatidylinositol 4,5-bisphosphate 3-kinase catalytic subunit delta isoform (Homo sapiens, UniProt O00329)
T5 sequence (O00329 whole entry): T3 sequence (whole entry)
Assay: Inhibition of PI3Kdelta (unknown origin)
Settings: not given

Row | SMILES | pIC50
54 | Nc1nc2ccc(Cl)cc2c2nc(-c3ccco3)nn12 [CGS-15943] | 6.01

Target: Casein kinase I isoform alpha (Homo sapiens, UniProt P48729)
Sequence (P48729 whole entry, canonical isoform): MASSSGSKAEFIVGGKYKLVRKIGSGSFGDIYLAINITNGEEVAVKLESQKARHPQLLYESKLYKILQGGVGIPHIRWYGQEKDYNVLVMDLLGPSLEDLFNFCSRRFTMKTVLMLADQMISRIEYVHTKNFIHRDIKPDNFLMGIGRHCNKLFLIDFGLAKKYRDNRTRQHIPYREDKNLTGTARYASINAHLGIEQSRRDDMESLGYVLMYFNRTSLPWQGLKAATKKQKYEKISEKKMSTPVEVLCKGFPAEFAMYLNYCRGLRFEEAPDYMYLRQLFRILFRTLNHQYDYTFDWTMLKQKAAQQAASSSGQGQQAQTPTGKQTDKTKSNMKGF
Assay: Inhibition of CK1alpha (unknown origin)
Settings: not given

Row | SMILES | pIC50
55 | Nc1nc2ccc(O)cc2c2nc(-c3ccco3)nn12 | 5.21
56 | Nc1nc2ccc(Br)cc2c2nc(-c3ccco3)nn12 | 6.66
57 | Nc1nc2ccc(Cl)cc2c2nc(-c3ncco3)nn12 | 5.53
58 | Nc1nc2ccc(Cl)cc2c2nc(-c3ccco3)nn12 [CGS-15943] | 6.09
